# Target: T1, human PAD4 (Homo sapiens, UniProt Q9UM07)
# T1 construct: human PAD4 (NM_012387), A2-P663, was PCR amplified; His-SUMO (N, cleaved yes); made in house; host or cells: E. coli BL21(DE3)
# Assay: In vitro PAD4 BAEE biochemical assay
# Conditions: BAEE substrate 3 mM, 5 nM PAD4, 2 mM calcium chloride; geometric mean of multiple experiments
# Excerpt: In Vitro PAD4 BAEE Biochemical Assay
# The enzymatic activity of human PAD4 was monitored in a biochemical assay in the presence or absence of compounds using the small peptidyl arginine mimic BAEE (Na-Benzoyl-L-arginine ethyl ester hydrochloride) as substrate. PAD4 activity led to deimination of BAEE and release of ammonia. Levels of ammonia were monitored by using an amine coupling reaction and were indicative of PAD4 enzymatic activity.
# One hundred nanoliters of test compounds dissolved in DMSO at various concentrations were dispensed into a 384-well black OptiPlate using a Labcyte Echo instrument. Ten microliters of a solution of recombinant PAD4 and calcium chloride diluted in PAD4 assay buffer (50 mM MOPS [3-(N-morpholino) propanesulfonic acid], pH 7.6; 50 mM sodium chloride; 0.05% Tween-20; 2 mM dithiothreitol) was added to the compound-containing plate and was incubated for 30 minutes at 25° C. Ten microliters of a solution of BAEE (Sigma-Aldrich #B4500) diluted in PAD4 assay buffer was then added to start the reaction. Final concentrations were 5 nM PAD4, 2 mM calcium chloride, and 3 mM BAEE. The reaction mixture was incubated at 25° C. for 2 hours and was stopped with the addition of 10 microliters of a solution of 75 mM EDTA (Ethylenediaminetetraacetic acid) in PAD4 assay buffer. Thirty microliters of detection solution (5 mM o-phthalaldehyde, 50 mM MOPS [3-(N-morpholino) propanesulfonic acid], pH 7.6; 50 mM sodium chloride; 0.05% Tween-20; 5 mM dithiothreitol) was then added and the reaction was incubated for 1 hour at 25° C. The level of fluorescent thiol-substituted isoindole resulting from the reaction of ammonia, o-phthalaldehyde, and dithiothreitol was measured on an Envision plate reader (PerkinElmer) with 405 nm excitation and 535 nm emission.
# Data were normalized based on maximum inhibition (50 micromolar of the covalent PAD inhibitor BB-Cl-Amidine (Bicker, K. L.; Anguish, L.; Chumanevich, A. A.; Cameron, M. D.; Cui, X.; Witalison, E.; Subramanian, V.; Zhang, X.; Chumanevich, A. P.; Hofseth, L. J.; Coonrod, S. A.; Thompson, P. R. ACS Med. Chem. Lett. 2012, 3, 1081-1085). and no inhibition (DMSO) controls. Least squares curve fittings were performed using a four-parameter variable slope nonlinear regression model. IC50 is defined as the concentration of compound required to inhibit 50% of maximum activity. IC50 values from multiple experiments were averaged by geometric mean and the standard deviation was calculated.
# T1 sequence (Q9UM07 2-663): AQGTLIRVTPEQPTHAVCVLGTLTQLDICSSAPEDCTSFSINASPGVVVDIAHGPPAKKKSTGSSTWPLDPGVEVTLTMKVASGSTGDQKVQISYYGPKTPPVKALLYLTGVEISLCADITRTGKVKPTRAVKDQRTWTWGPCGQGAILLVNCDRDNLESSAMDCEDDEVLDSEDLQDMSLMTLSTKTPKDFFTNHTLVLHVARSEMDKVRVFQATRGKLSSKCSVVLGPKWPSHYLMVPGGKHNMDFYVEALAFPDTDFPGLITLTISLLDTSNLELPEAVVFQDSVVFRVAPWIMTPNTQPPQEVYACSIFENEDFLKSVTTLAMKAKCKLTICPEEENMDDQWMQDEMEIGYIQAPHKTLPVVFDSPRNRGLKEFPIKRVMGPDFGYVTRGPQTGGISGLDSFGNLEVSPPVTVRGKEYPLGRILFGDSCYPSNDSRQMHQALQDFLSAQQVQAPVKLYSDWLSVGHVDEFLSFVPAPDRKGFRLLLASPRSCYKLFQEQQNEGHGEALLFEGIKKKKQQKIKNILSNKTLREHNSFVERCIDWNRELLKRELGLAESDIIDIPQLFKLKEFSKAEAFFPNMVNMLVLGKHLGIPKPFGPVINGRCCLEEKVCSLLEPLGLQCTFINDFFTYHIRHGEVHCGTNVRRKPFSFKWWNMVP
row,SMILES,IC50
1,"COc1cc(C(=O)N2CCC[C@@H](N)C2)cc2nc(-c3cc4ccc5nc4n3CCC/C=C/C[C@@](C)(C(F)(F)F)C(=O)N[C@@H]5C)n(C)c12 (single isomer, unassigned) [Example 2, (5˜{E},8˜{R},11˜{R})-17-[5-[(3˜{R})-3-aminopiperidine-1-carbonyl]-7-methoxy-1-methyl-benzimidazol-2-yl]-8,11-dimethyl-8-(trifluoromethyl)-1,10,19-triazatricyclo[10.5.2.0^{15,18}]nonadeca-5,12(19),13,15(18),16-pentaen-9-one]",75 nM
2,"COc1cc(C(=O)N2CCC[C@@H](N)C2)cc2nc(-c3cc4ccc5nc4n3CCC/C=C/C[C@](C)(C(F)(F)F)C(=O)N[C@@H]5C)n(C)c12 (single isomer, unassigned) [Example 3, (5˜{E},8˜{S},11˜{R})-17-[5-[(3˜{R})-3-aminopiperidine-1-carbonyl]-7-methoxy-1-methyl-benzimidazol-2-yl]-8,11-dimethyl-8-(trifluoromethyl)-1,10,19-triazatricyclo[10.5.2.0^{15,18}]nonadeca-5,12(19),13,15(18),16-pentaen-9-one]",110 nM
3,"COc1cc(C(=O)N2[C@H]3CC[C@@H]2[C@H](N)C3)cc2nc(-c3cc4ccc5nc4n3C[C@@H]3[C@H](COCCC(=O)N[C@@H]5C)C3(C)C)n(C)c12 (single isomer, unassigned) [Example 10, (3˜{R},5˜{S},12˜{R})-18-[5-[(1˜{R},2˜{R},4˜{S})-2-amino-7-azabicyclo[2.2.1]heptane-7-carbonyl]-7-methoxy-1-methyl-benzimidazol-2-yl]-4,4,12-trimethyl-7-oxa-1,11,20-triazatetracyclo[11.5.2.0^{3,5}.0^{16,19}]icosa-13(20),14,16(19),17-tetraen-10-one]",56 nM
4,"COc1cc(C(=O)N2[C@H]3CC[C@@H]2[C@H](N)C3)cc2nc(-c3cc4ccc5nc4n3C[C@H]3[C@@H](COCCC(=O)N[C@@H]5C)C3(C)C)n(C)c12 (single isomer, unassigned) [Example 11, (3˜{S},5˜{R},12˜{R})-18-[5-[(1˜{R},2˜{R},4˜{S})-2-amino-7-azabicyclo[2.2.1]heptane-7-carbonyl]-7-methoxy-1-methyl-benzimidazol-2-yl]-4,4,12-trimethyl-7-oxa-1,11,20-triazatetracyclo[11.5.2.0^{3,5}.0^{16,19}]icosa-13(20),14,16(19),7-tetraen-10-one]",251 nM
5,"COc1cc(C(=O)N2CCC[C@@H](N)C2)cc2nc(-c3cc4ccc5nc4n3C[C@H]3C[C@H]3CC[C@@H]3C[C@H]3C(=O)N[C@@H]5C)n(C)c12 (single isomer, unassigned) [Example 115, (3˜{S},5˜{R},8˜{R},10˜{R},13˜{R})-19-[5-[(3˜{R})-3-aminopiperidine-1-carbonyl]-7-methoxy-1-methyl-benzimidazol-2-yl]-13-methyl-1,12,21-triazapentacyclo[12.5.2.0^{3,5}.0^{8,10}.0^{17,20}]henicosa-14(21),15,17(20),18-tetraen-11-one]",40 nM
6,"COc1cc(C(=O)N2CCC[C@@H](N)C2)cc2nc(-c3cc4ccc5nc4n3C[C@H]3C[C@H]3CC[C@H]3C[C@@H]3C(=O)N[C@@H]5C)n(C)c12 (single isomer, unassigned) [Example 116, (3˜{S},5˜{R},8˜{S},10˜{S},13˜{R})-19-[5-[(3˜{R})-3-aminopiperidine-1-carbonyl]-7-methoxy-1-methyl-benzimidazol-2-yl]-13-methyl-1,12,21-triazapentacyclo[12.5.2.0^{3,5}.0^{8,10}.0^{17,20}]henicosa-14(21),15,17(20),18-tetraen-11-one]",255 nM
7,"COc1cc(C(=O)N2[C@H]3CC[C@@H]2[C@H](N)C3)cc2nc(-c3cc4ccc5nc4n3CCCCC[C@@H]3C[C@H]3C(=O)N[C@@H]5C)n(C)c12 (single isomer, unassigned) [Example 223, (2˜{R},5˜{R},7˜{R})-14-[5-[(1˜{R},2˜{R},4˜{S})-2-amino-7-azabicyclo[2.2.1]heptane-7-carbonyl]-7-methoxy-1-methyl-benzimidazol-2-yl]-2-methyl-3,13,19-triazatetracyclo[11.5.2.0^{5,7}.0^{16,20}]icosa-1(19),14,16(20),17-tetraen-4-one]",28 nM
8,"COc1cc(C(=O)N2[C@H]3CC[C@@H]2[C@H](N)C3)cc2nc(-c3cc4ccc5nc4n3CCCCC[C@H]3C[C@@H]3C(=O)N[C@@H]5C)n(C)c12 (single isomer, unassigned) [Example 224, (2˜{R},5˜{S},7˜{S})-14-[5-[(1˜{R},2˜{R},4˜{S})-2-amino-7-azabicyclo[2.2.1]heptane-7-carbonyl]-7-methoxy-1-methyl-benzimidazol-2-yl]-2-methyl-3,13,19-triazatetracyclo[11.5.2.0^{5,7}.0^{16,20}]icosa-1(19),14,16(20),17-tetraen-4-one]",57 nM
9,"COc1cc(C(=O)N2CCC[C@@H](N)C2)cc2nc(-c3cc4ccc5nc4n3CCCCCCCC(=O)N[C@@H]5C(F)(F)F)n(C)c12 (single isomer, unassigned) [Example 235, (11˜{S})-17-[5-[(3˜{R})-3-aminopiperidine-1-carbonyl]-7-methoxy-1-methyl-benzimidazol-2-yl]-11-(trifluoromethyl)-1,10,19-triazatricyclo[10.5.2.0^{15,18}]nonadeca-12(19),13,15(18),16-tetraen-9-one]",113 nM
10,"COc1cc(C(=O)N2CCC[C@@H](N)C2)cc2nc(-c3cc4ccc5nc4n3CCCCCCCC(=O)N[C@H]5C(F)(F)F)n(C)c12 (single isomer, unassigned) [Example 236, (11˜{R})-17-[5-[(3˜{R})-3-aminopiperidine-1-carbonyl]-7-methoxy-1-methyl-benzimidazol-2-yl]-11-(trifluoromethyl)-1,10,19-triazatricyclo[10.5.2.0^{15,18}]nonadeca-12(19),13,15(18),16-tetraen-9-one]",858 nM
11,"COc1cc(C(=O)N2CC[C@H]3OCCN[C@H]3C2)cc2nc(-c3cc4ccc5nc4n3C[C@H]3C[C@H]3COCCC(=O)N[C@@H]5C)n(C)c12 (single isomer, unassigned) [Example 245, (3˜{S},5˜{R},12˜{R})-18-[5-[(4˜{a}˜{S},8˜{a}˜{R})-2,3,4,4˜{a},5,7,8,8˜{a}-octahydropyrido[4,3-b][1,4]oxazine-6-carbonyl]-7-methoxy-1-methyl-benzimidazol-2-yl]-12-methyl-7-oxa-1,11,20-triazatetracyclo[11.5.2.0^{3,5}.0^{16,19}]icosa-13(20),14,16(19),17-tetraen-10-one]",411 nM
12,"COc1cc(C(=O)N2CC[C@@H]3OCCN[C@@H]3C2)cc2nc(-c3cc4ccc5nc4n3C[C@H]3C[C@H]3COCCC(=O)N[C@@H]5C)n(C)c12 (single isomer, unassigned) [Example 246, (3˜{S},5˜{R},12˜{R})-18-[5-[(4˜{a}˜{R},8˜{a}˜{S})-2,3,4,4˜{a},5,7,8,8˜{a}-octahydropyrido[4,3-b][1,4]oxazine-6-carbonyl]-7-methoxy-1-methyl-benzimidazol-2-yl]-12-methyl-7-oxa-1,11,20-triazatetracyclo[11.5.2.0^{3,5}.0^{16,19}]icosa-13(20),14,16(19),17-tetraen-10-one]",3320 nM
